Experimental data reported in PubChem BioAssay AID624167 (Sanford-Burnham Center for Chemical Genomics, 2012).
Calls of active or inactive are those of the source.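 Rule for the calls: active = mean IC50 for reducing PEG3 promoter reporter signal at or below a set limit, with IC50 above the limit in both counter screens; inactive = the rest, including counter screen hits.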

How the values were obtained:
Test in all cases: inhibition of PEG-3 promoter-driven reporter – cell-based, HeLa, luciferase, CREF/GAPDH counter-screen panel, dose response (AID 624167)
[1] = test system: Rat fibroblasts (CREF); conditions: CREF/GAPDH counter-screens
[2] = target: PEG-3 (UniProt Q6IN02); conditions: HeLa PEG-Prom luciferase reporter, overnight, CREF/GAPDH counter-screens, mean of runs
[3] = test system: PEG-3; conditions: HeLa PEG-Prom luciferase reporter, overnight, CREF/GAPDH counter-screens
[4] = run 1, dose range 1, individual replicate IC50 per panel
[5] = run 2, dose range 1, individual replicate IC50 per panel

PEG-3 (UniProt Q6IN02), sequence (Q6IN02 whole entry, looked up): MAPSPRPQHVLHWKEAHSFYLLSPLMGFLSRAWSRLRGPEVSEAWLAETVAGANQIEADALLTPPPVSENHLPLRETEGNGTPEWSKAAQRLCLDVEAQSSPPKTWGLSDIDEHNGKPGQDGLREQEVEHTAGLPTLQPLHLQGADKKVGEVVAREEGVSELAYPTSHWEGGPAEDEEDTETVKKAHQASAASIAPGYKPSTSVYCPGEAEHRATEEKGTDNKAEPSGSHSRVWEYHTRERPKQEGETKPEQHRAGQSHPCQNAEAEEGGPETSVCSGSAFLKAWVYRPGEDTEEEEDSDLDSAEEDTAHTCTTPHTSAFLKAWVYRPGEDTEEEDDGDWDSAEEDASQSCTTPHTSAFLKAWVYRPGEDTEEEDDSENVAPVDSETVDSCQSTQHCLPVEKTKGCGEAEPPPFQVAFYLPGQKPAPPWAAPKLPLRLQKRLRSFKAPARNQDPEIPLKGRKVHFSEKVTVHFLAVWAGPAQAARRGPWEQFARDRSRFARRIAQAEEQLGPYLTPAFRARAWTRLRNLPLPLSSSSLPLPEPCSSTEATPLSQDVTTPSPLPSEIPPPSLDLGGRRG

| SMILES | IC50 ([1]; mean of runs) [nM] | IC50 [1, 4] [nM] | IC50 [1, 5] [nM] | IC50 [2] | IC50 [3, 4] [nM] | IC50 [3, 5] [nM] |
| --- | --- | --- | --- | --- | --- | --- |
| Fc1ccc(-c2nnc(NC3=NCCCCC3)o2)cc1 | 3580 | 3940 | 3230 | 4060 nM | 4110 | 4000 |
| COc1ccccc1C(=O)Nc1nc2ccccc2[nH]1 | 280 | 226 | 335 | 535 nM | 707 | 362 |
| CN(C)c1ccc(/C=C/c2ccc3ccccc3n2)cc1 | 2690 | 2150 | 3220 | 3290 nM | 2090 | 4480 |
| COC1=C(Br)C(=O)c2ncccc2C1=O | 14200 | 8910 | 19400 | 6650 nM | 8010 | 5300 |
| CCCn1c(C)cc(C(=O)CN2C(=O)c3ccccc3S2(=O)=O)c1C | 6190 | 6320 | 6060 | 4030 nM | 3240 | 4830 |
| O=C1CCCCC1Sc1nnc(-c2ccc3c(c2)OCO3)o1 (stereo unspecified) | 7830 | 8190 | 7460 | 1700 nM | 1690 | 1710 |
| O=C(CNCCC1=CCCCC1)Nc1ccc(N2CCCCCC2)cc1 | 16600 | 16500 | 16800 | 9980 nM | 10600 | 9370 |
| Cc1ccc(C(=O)Nc2nc3ccccc3[nH]2)cc1 | 521 | 523 | 519 | 3370 nM | 2020 | 4710 |
| O=C(O)c1cccc(COc2ccc(CO)cc2Cl)c1 | 8350 | 8630 | 8080 | 391 nM | 202 | 581 |
| O=C(Nc1ncc([N+](=O)[O-])s1)c1ccc2c(c1)OCO2 | 10800 | 8900 | 12800 | 2210 nM | 2010 | 2410 |
| CC(C)(C)c1ccc(C(=O)O/N=C(\N)c2ccccn2)cc1 | 9840 | 9330 | 10300 | inactive | 367 | > 100000 |
| COC(CNC(=O)c1ccc2c3c(onc13)-c1ccccc1C2=O)OC | 18400 | 17600 | 19200 | 7480 nM | 9320 | 5650 |
| CCOC(=O)c1cnc(Nc2nc3ccccc3o2)nc1C | 1320 | 1270 | 1370 | 1750 nM | 1170 | 2320 |
| CN(C)c1ccc(/C=C/c2nc3ccccc3s2)cc1 | 1560 | 1170 | 1940 | 6120 nM | 4730 | 7510 |
| O=C(NCCc1ccccc1)c1ccc2c(c1)OCO2 | 6290 | 6890 | 5680 | 4930 nM | 3970 | 5890 |
| CC(=O)CSc1ccc(-c2nc3cc(C)c(C)cc3[nH]2)cn1 | 2080 | 1790 | 2360 | 2020 nM | 2210 | 1840 |
| O=C(CN1C(=O)c2ccccc2S1(=O)=O)c1ccc2c(c1)OCCO2 | 1610 | 1280 | 1940 | 573 nM | 730 | 415 |
| COc1cccc(/C=N/NC(=O)c2ccc(-c3ccccc3)cc2)c1O | 24900 | 19600 | 30200 | 2530 nM | 3330 | 1730 |

| SMILES | IC50 ([1]; mean of runs) [nM] | IC50 [1, 4] [nM] | IC50 [1, 5] [nM] | IC50 [2] | IC50 [3, 4] [nM] | IC50 [3, 5] [nM] |
| --- | --- | --- | --- | --- | --- | --- |
| COc1cccc(-c2sc3ccccc3c2-c2ccc(OCCN(C)C)cc2)c1 | 14400 | 14600 | 14200 | 8800 nM | 10000 | 7600 |
| COc1ccc(C(=O)CN2C(=O)c3ccccc3S2(=O)=O)cc1 | 3150 | 3260 | 3040 | 3280 nM | 2960 | 3590 |
| Cc1cc(C(=O)COC(=O)c2ccccc2O)c(C)n1Cc1cccs1 | 1360 | 812 | 1900 | 3320 nM | 1790 | 4860 |
| Cc1cccc(/C=N/Nc2ccc3ccccc3n2)c1 | 1410 | 2440 | 370 | 4180 nM | 3780 | 4580 |
| Cc1cc(C(=O)CN2C(=O)c3ccccc3S2(=O)=O)c(C)n1CC1CCCO1 (stereo unspecified) | 3910 | 1950 | 5860 | 568 nM | 760 | 375 |
| COc1ccc(-c2cc3nc(C)n(N)c(=O)c3s2)cc1 | 1090 | 1010 | 1160 | 473 nM | 657 | 288 |
| Cc1ccc(-c2nc(-c3ccccn3)no2)cc1 | 480 | 288 | 672 | 571 nM | 479 | 663 |
| O=C1c2cccc3cc([N+](=O)[O-])cc(c23)C(=O)N1CCN1CCCC1 | 4660 | 4170 | 5150 | 5570 nM | 6200 | 4940 |
| C/C(=N\NC(=O)c1n[nH]c2c1CCC2)c1cccs1 | 2490 | 2490 | 2490 | 1750 nM | 1170 | 2330 |
| O=c1oc2ccccc2cc1-c1cn2ccccc2n1 | 4470 | 2840 | 6100 | 2740 nM | 2310 | 3170 |
| COC(=O)c1nn(-c2ccc3c(c2)CCN3C(C)=O)cc1O | 4480 | 5010 | 3950 | 4810 nM | 3930 | 5690 |
| COc1cc(/C=N/O)ccc1OCc1ccc(C(=O)O)cc1 | 9430 | 10100 | 8800 | 1610 nM | 1710 | 1510 |
| COc1ccc(OCc2cccc(C(=O)O)c2)cc1 | 10500 | 10200 | 10800 | 327 nM | 263 | 390 |
| CN(C)c1ccc(/C=C(\C#N)c2ccccn2)cc1 | 639 | 531 | 747 | 4320 nM | 4250 | 4380 |
| O=C(NCCc1ccccc1)c1ccc2c(c1)OCCCO2 | 589 | 374 | 803 | 557 nM | 466 | 647 |
| O=c1c2ccccc2cnn1-c1nc2ccccc2[nH]1 | 546 | 475 | 617 | 723 nM | 686 | 760 |
| Cc1csc(NC(=O)c2cn3ccccc3n2)n1 | 1090 | 1110 | 1070 | 4150 nM | 2680 | 5620 |
| CCOc1ccc(NC(=O)c2ccccn2)cc1 | 1280 | 921 | 1650 | 3460 nM | 2890 | 4040 |
